In US20250051319A1 (AUGUSTINE THERAPEUTICS, priority 2021, published 2025):

Molecular target: catalytic domain 2 (CD2) of HDAC6 (Homo sapiens (Human), UniProt Q9UBN7)
Experiment: Cellular target engagement assay - NanoBRET
Assay type: cell-based
Details: NanoLuc-HDAC6(CD2) in HEK293T cells, 2 hours, read-out: IC50 (HDAC6(CD2) interaction)
Protocol: NanoBRET target engagement was performed against the catalytic domain 2 (CD2) of HDAC6, with minor modifications of kit manufacturer protocol (Promega). Expression of exogenous NanoLuc-HDAC6(CD2) fusion and in HEK293T was achieved following transient transfection with FuGENE HD Transfection Reagent (Promega). The intracellular target engagement assay on HDAC6(CD2) was performed in a 384-well plate format with 8,000 cells per well and a tracer concentration of 0.125 μM or 0.600 μM for HDAC6(CD2). Compounds (dissolved in 100% DMSO) or DMSO (vehicle) were added either manually by diluting them in culture medium at 8× final assay concentration and then adding 5 μL to assay plate or in an automated way by adding […] compound to 5 μL OptiMEM without phenol red (Gibco) using the Echo650 (Labcyte). Tracer solution was added to the cells before seeding 35 μL cell/tracer mixture in the assay plate. The final reaction volume was 40 μL, final DMSO concentration was 1.4% (manual compound addition) or 1.25% (automated compound addition). Assay plates were incubated at 37° C. in a humidified atmosphere containing 5% C02 for 2 hours. The NanoBRET Nano-glo Substrate/Inhibitor was prepared by diluting NanoBRET Nano-Glo Substrate (1:332) and Extracellular Inhibitor (1:1000) in assay medium (Promega). […] BRET ratios were calculated from acceptor/donor signal ratio (mBRET=acceptor/donor*1000) and normalized for each plate. Percentage inhibition was calculated by setting the mBRET obtained with cells without tracer to 100%, while the mBRET obtained with uninhibited cells with tracer was set to 0%. IC50-values were calculated from the percentage inhibition with the log(inhibitor) vs. response—Variable slope (four parameters) nonlinear regression in GraphPad Prism software.

catalytic domain 2 (CD2) of HDAC6, sequence (Q9UBN7 482-800): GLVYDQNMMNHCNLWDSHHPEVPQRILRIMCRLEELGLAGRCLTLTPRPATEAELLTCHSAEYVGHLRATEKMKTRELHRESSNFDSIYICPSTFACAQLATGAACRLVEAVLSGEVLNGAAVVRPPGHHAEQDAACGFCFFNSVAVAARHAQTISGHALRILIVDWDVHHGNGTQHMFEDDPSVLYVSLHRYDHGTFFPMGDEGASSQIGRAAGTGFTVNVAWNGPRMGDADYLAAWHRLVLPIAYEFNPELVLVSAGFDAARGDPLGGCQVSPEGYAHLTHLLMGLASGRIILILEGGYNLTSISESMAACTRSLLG

In the case of `CC(NC(=O)CO)c1ccc(C(=O)CSc2nc3cnc(C(F)(F)F)cc3o2)s1` (stereo in doubt) [Example 129, (S)-2-hydroxy-N-(1-(5-(2-((6-(trifluoromethyl)oxazolo[4,5-c]pyridin-2-yl)thio)acetyl)thiophen-2-yl)ethyl)acetamide], the IC50 is reported as ≤ 100 nM.
For `O=C(CSc1nc(C(F)(F)F)nc2ncccc12)c1ccc(CN2CCC(O)C2=O)s1` (stereo in doubt) [Example 156, (R)-3-hydroxy-1-((5-(2-((2-(trifluoromethyl)pyrido[2,3-d]pyrimidin-4-yl)thio)acetyl)thiophen-2-yl)methyl)pyrrolidin-2-one], the IC50 was ≤ 100 nM.
An IC50 of 500 to 1000 nM was found for `Cn1ncc2c(SCC(=O)c3ccc(CNC(=O)C(O)C(F)(F)F)s3)ncnc21` (stereo not drawn) [Compound 42, 3,3,3-trifluoro-2-hydroxy-N-((5-(2-((1-methyl-1H-pyrazolo[3,4-d]pyrimidin-4-yl)thio)acetyl)thiophen-2-yl)methyl)propanamide] in this work.
In the case of `O=C(CSc1nc2nc(C(F)(F)F)ccc2o1)c1ccc(CNC(=O)C2(O)CC2)s1` [Compound 45, 1-hydroxy-N-((5-(2-((5-(trifluoromethyl)oxazolo[4,5-b]159yrrolid-2-yl)thio)acetyl)thiophen-2-yl)methyl)cyclopropane-1-carboxamide], the IC50 is reported as ≤ 100 nM.
For `Cn1cc2c(SCC(=O)c3ccc(CNC(=O)C(O)C(F)(F)F)s3)nc(C(F)(F)F)nc2n1` (stereo not drawn) [Compound 46, 3,3,3-trifluoro-2-hydroxy-N-((5-(2-((2-methyl-6-(trifluoromethyl)-2H-pyrazolo[3,4-d]pyrimidin-4-yl)thio)acetyl)thiophen-2-yl)methyl)propanamide], the IC50 was ≤ 100 nM.
An IC50 of 100 to 500 nM was found for `O=C(CSc1nc(C(F)(F)F)nc2ccc(N3CCOCC3)cc12)c1ccc(CNC(=O)C2(O)CC2)s1` [Compound 47, 1-hydroxy-N-((5-(2-((6-morpholino-2-(trifluoromethyl)quinazolin-4-yl)thio)acetyl)thiophen-2-yl)methyl)cyclopropane-1-carboxamide] in this work.
`Cn1cc2c(SCC(=O)c3ccc(CNC(=O)C(C)(C)O)s3)nc(C(F)(F)F)nc2n1` [Compound 48, 2-hydroxy-2-methyl-N-((5-(2-((2-methyl-6-(trifluoromethyl)-2H-pyrazolo[3,4-d]pyrimidin-4-yl)thio)acetyl)thiophen-2-yl)methyl)propanamide] was tested, and the IC50 was ≤ 100 nM.
`Cn1cc2c(SCC(=O)c3ccc(CNC(=O)C4(O)CC4)s3)nc(C(F)(F)F)nc2n1` [Compound 49, 1-hydroxy-N-((5-(2-((2-methyl-6-(trifluoromethyl)-2H-pyrazolo[3,4-d]pyrimidin-4-yl)thio)acetyl)thiophen-2-yl)methyl)cyclopropane-1-carboxamide] was tested, and the IC50 was ≤ 100 nM.
An IC50 of 100 to 500 nM was found for `COc1ccc2nc(C)nc(SCC(=O)c3ccc(CNC(=O)C4(O)CC4)s3)c2c1` [Compound 50, 1-hydroxy-N-((5-(2-((6-methoxy-2-methylquinazolin-4-yl)thio)acetyl)thiophen-2-yl)methyl)cyclopropane-1-carboxamide] in this work.
An IC50 of 500 to 1000 nM was found for `Cn1ncc2c(SCC(=O)c3ccc(CNC(=O)C(C)(C)O)s3)ncnc21` [Compound 52, 2-hydroxy-2-methyl-N-((5-(2-((1-methyl-1H-pyrazolo[3,4-d]pyrimidin-4-yl)thio)acetyl)thiophen-2-yl)methyl)propanamide] in this work.
In the case of `CCc1nc(SCC(=O)c2ccc(CNC(=O)CO)s2)c2ccccc2n1` [Compound 62, N-((5-(2-((2-ethylquinazolin-4-yl)thio)acetyl)thiophen-2-yl)methyl)-2-hydroxyacetamide], the IC50 is reported as ≤ 100 nM.
An IC50 of 500 to 1000 nM was found for `Cc1nc(SCC(=O)c2ccc(CNC(=O)CO)s2)c2cn(C)nc2n1` [Compound 65, N-((5-(2-((2,6-dimethyl-2H-pyrazolo[3,4-d]pyrimidin-4-yl)thio)acetyl)thiophen-2-yl)methyl)-2-hydroxyacetamide] in this work.
With `Cc1nc(SCC(=O)c2ccc(CNC(=O)CO)s2)c2ccccc2n1` [Compound 66, 2-hydroxy-N-((5-(2-((2-methylquinazolin-4-yl)thio)acetyl)thiophen-2-yl)methyl)acetamide] the IC50 was ≤ 100 nM.
An IC50 of 100 to 500 nM was found for `Cc1nc(SCC(=O)c2ccc(CNC(=O)CO)s2)c2cc(F)ccc2n1` [Compound 67, N-((5-(2-((6-fluoro-2-methylquinazolin-4-yl)thio)acetyl)thiophen-2-yl)methyl)-2-hydroxyacetamide] in this work.
An IC50 of 100 to 500 nM was found for `Cc1nc(SCC(=O)c2ccc(CNC(=O)CO)s2)c2ccc(F)cc2n1` [Compound 68, N-((5-(2-((7-fluoro-2-methylquinazolin-4-yl)thio)acetyl)thiophen-2-yl)methyl)-2-hydroxyacetamide] in this work.
An IC50 of 100 to 500 nM was found for `COc1ccc2c(SCC(=O)c3ccc(CNC(=O)CO)s3)nc(C)nc2c1` [Compound 70, 2-hydroxy-N-((5-(2-((7-methoxy-2-methylquinazolin-4-yl)thio)acetyl)thiophen-2-yl)methyl)acetamide] in this work.
For `Cc1nc(SCC(=O)c2ccc(CNC(=O)CO)s2)c2cc(OC3CC3)ccc2n1` [Compound 77, N-((5-(2-((6-cyclopropoxy-2-methylquinazolin-4-yl)thio)acetyl)thiophen-2-yl)methyl)-2-hydroxyacetamide], the IC50 was ≤ 100 nM.
`Cc1nc(SCC(=O)c2ccc(CNC(=O)CO)s2)c2cc(NCC3CC3)ccc2n1` [Compound 78, N-((5-(2-((6-((cyclopropylmethyl)amino)-2-methylquinazolin-4-yl)thio)acetyl)thiophen-2-yl)methyl)-2-hydroxyacetamide] was tested, and the IC50 was ≤ 100 nM.
In the case of `COc1ccc2nc(C(F)(F)F)nc(SCC(=O)c3ccc(CNC(=O)CO)s3)c2c1` [Compound 80, 2-hydroxy-N-((5-(2-((6-methoxy-2-(trifluoromethyl)quinazolin-4-yl)thio)acetyl)thiophen-2-yl)methyl)acetamide], the IC50 is reported as ≤ 100 nM.
`Cc1nc(SCC(=O)c2ccc(CNC(=O)CO)s2)c2cc(N3CCOCC3)ccc2n1` [Compound 81, 2-hydroxy-N-((5-(2-((2-methyl-6-morpholinoquinazolin-4-yl)thio)acetyl)thiophen-2-yl)methyl)acetamide] was tested, and the IC50 was ≤ 100 nM.
`Cc1nc(SCC(=O)c2ccc(CNC(=O)CO)s2)c2cc(N3CCCCC3)ccc2n1` [Compound 82, 2-hydroxy-N-((5-(2-((2-methyl-6-(piperidin-1-yl)quinazolin-4-yl)thio)acetyl)thiophen-2-yl)methyl)acetamide] was tested, and the IC50 was ≤ 100 nM.
`Cc1nc(SCC(=O)c2ccc(CNC(=O)CO)s2)c2cc(N3CCCOCC3)ccc2n1` [Compound 83, 2-hydroxy-N-((5-(2-((2-methyl-6-(1,4-oxazepan-4-yl)quinazolin-4-yl)thio)acetyl)thiophen-2-yl)methyl)acetamide] was tested, and the IC50 was ≤ 100 nM.
In the case of `Cc1nc(SCC(=O)c2ccc(CNC(=O)CO)s2)c2cc(N3CCC(F)(F)C3)ccc2n1` [Compound 84, N-((5-(2-((6-(3,3-difluoropyrrolidin-1-yl)-2-methylquinazolin-4-yl)thio)acetyl)thiophen-2-yl)methyl)-2-hydroxyacetamide], the IC50 is reported as ≤ 100 nM.
An IC50 of 1000 to 10000 nM was found for `Cn1ncc2c(SCC(=O)c3ccc(C4CCN(C(=O)CO)C4)s3)ncnc21` (stereo not drawn) [Compound 86, 2-hydroxy-1-(3-(5-(2-((1-methyl-1H-pyrazolo[3,4-d]pyrimidin-4-yl)thio)acetyl)thiophen-2-yl)157yrrolidine-1-yl)ethan-1-one] in this work.
An IC50 of 1000 to 10000 nM was found for `Cn1ncc2c(SCC(=O)c3ccc(CNS(=O)(=O)c4ccccc4)s3)ncnc21` [Compound 88, N-((5-(2-((1-methyl-1H-pyrazolo[3,4-d]pyrimidin-4-yl)thio)acetyl)thiophen-2-yl)methyl)benzenesulfonamide] in this work.
An IC50 of 1000 to 10000 nM was found for `Cn1ncc2c(SCC(=O)c3ccc(CNS(=O)(=O)C4CC4)s3)ncnc21` [Compound 89, N-((5-(2-((1-methyl-1H-pyrazolo[3,4-d]pyrimidin-4-yl)thio)acetyl)thiophen-2-yl)methyl)cyclopropanesulfonamide] in this work.
An IC50 of 500 to 1000 nM was found for `Cn1ncc2c(SCC(=O)c3ccc(C4CCN(S(N)(=O)=O)C4)s3)ncnc21` (stereo not drawn) [Compound 96, 3-(5-(2-((1-methyl-1H-pyrazolo[3,4-d]pyrimidin-4-yl)thio)acetyl)thiophen-2-yl)pyrrolidine-1-sulfonamide] in this work.
In the case of `CC(=O)NCc1ccc(C(=O)CSc2nc(C(F)(F)F)nc3ccccc23)s1` [Compound 99, N-((5-(2-((2-(trifluoromethyl)quinazolin-4-yl)thio)acetyl)thiophen-2-yl)methyl)acetamide], the IC50 is reported as ≤ 100 nM.
An IC50 of 100 to 500 nM was found for `CC(=O)NCCc1ccc(C(=O)CSc2nc(C(F)(F)F)nc3ccccc23)s1` [Compound 100, N-(2-(5-(2-((2-(trifluoromethyl)quinazolin-4-yl)thio)acetyl)thiophen-2-yl)ethyl)acetamide] in this work.
An IC50 of 100 to 500 nM was found for `Cn1ncc2c(SCC(=O)c3ccc(CNC(=O)C(C)(C)C)s3)ncnc21` [Compound 102, N-((5-(2-((1-methyl-1H-pyrazolo[3,4-d]pyrimidin-4-yl)thio)acetyl)thiophen-2-yl)methyl)pivalamide] in this work.
